Reference: publication PMC5943477, “A Novel Enzyme Portfolio for Red Algal Polysaccharide Degradation in the Marine Bacterium Paraglaciecola hydrolytica S66^T Encoded in a Sizeable Polysaccharide Utilization Locus” (Frontiers in Microbiology, 2018)

How the values were obtained:
Format in all cases: biochemical
[1] = molecular target: T1, Ph1615 (GH117) (Paraglaciecola hydrolytica, UniProt A0A136A0T3); test: TLC of hydrolysis products, crude recombinant lysate; settings: 25 °C overnight, pH 8
T1 construct: gene AX660_11560; full gene without any predicted signal peptide, pET9a-USER vector (octa-His tag), E. coli BL21(DE3) crude lysate
T1 sequence (A0A136A0T3 1-359): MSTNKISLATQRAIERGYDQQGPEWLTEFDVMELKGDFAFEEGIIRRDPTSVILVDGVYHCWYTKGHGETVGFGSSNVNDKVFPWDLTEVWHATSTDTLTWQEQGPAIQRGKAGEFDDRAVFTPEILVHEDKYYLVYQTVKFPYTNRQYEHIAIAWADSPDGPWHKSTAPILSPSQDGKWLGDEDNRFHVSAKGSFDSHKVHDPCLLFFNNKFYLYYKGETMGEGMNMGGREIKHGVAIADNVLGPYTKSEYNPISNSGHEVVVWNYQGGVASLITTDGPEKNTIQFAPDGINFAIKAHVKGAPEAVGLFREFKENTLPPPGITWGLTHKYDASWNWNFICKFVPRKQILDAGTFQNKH

[2] = molecular target: T2, Ph1631 (GH16) (Paraglaciecola hydrolytica, UniProt A0A136A0U8); test: TLC of hydrolysis products from agarose, crude recombinant lysate; settings: 25 °C overnight, pH 8; agarose 0.05% w/v
T2 construct: gene AX660_11645; full gene without any predicted signal peptide, pET22b NdeI/XhoI, E. coli BL21(DE3) crude lysate
T2 sequence (A0A136A0U8 20-293): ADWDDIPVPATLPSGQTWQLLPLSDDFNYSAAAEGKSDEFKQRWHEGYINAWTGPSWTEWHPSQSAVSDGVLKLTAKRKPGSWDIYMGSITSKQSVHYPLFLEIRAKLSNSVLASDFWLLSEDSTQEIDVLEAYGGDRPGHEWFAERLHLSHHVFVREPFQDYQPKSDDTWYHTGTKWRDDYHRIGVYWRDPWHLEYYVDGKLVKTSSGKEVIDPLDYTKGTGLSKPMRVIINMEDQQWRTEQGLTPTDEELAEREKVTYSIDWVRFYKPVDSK

[3] = molecular target: T3, Ph1657 (GH42-like) (Paraglaciecola hydrolytica, UniProt A0A136A0V1); test: FACE (AMAC label) of hydrolysis products, crude recombinant lysate; settings: 25 °C overnight, pH 8, oligosaccharide 2 μg/μL
T3 construct: gene AX660_11775; full gene without any predicted signal peptide, pET9a-USER vector (octa-His tag), E. coli BL21(DE3) crude lysate
T3 sequence (A0A136A0V1 21-810): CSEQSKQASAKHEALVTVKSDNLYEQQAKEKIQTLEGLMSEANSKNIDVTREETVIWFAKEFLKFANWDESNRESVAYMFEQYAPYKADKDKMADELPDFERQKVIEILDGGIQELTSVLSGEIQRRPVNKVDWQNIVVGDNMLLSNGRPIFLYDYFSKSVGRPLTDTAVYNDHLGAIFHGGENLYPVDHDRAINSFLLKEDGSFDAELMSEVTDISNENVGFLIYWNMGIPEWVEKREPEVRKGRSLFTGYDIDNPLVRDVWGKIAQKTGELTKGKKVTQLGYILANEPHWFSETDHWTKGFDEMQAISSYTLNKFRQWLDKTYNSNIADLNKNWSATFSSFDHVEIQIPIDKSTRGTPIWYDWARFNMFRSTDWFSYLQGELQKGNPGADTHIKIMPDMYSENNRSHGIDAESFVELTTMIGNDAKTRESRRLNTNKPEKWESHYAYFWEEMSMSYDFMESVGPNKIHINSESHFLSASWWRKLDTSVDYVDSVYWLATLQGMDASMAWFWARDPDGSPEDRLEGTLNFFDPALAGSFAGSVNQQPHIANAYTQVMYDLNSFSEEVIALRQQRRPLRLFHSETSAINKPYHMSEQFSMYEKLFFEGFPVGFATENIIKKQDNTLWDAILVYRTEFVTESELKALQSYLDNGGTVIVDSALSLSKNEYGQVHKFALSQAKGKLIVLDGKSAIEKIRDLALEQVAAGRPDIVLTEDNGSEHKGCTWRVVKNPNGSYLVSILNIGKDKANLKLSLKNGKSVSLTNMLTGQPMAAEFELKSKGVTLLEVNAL

[4] = molecular target: T4, Ph1675 (GH16) (Paraglaciecola hydrolytica, UniProt A0A136A0W8); test: FACE (ANTS label) of hydrolysis products, crude recombinant lysate; settings: 25 °C overnight, pH 8, lysis buffer with 5 mM CaCl2
T4 construct: gene AX660_11860; full gene without any predicted signal peptide, pET9a-USER vector (octa-His tag), E. coli BL21(DE3) crude lysate
T4 sequence (A0A136A0W8 35-349): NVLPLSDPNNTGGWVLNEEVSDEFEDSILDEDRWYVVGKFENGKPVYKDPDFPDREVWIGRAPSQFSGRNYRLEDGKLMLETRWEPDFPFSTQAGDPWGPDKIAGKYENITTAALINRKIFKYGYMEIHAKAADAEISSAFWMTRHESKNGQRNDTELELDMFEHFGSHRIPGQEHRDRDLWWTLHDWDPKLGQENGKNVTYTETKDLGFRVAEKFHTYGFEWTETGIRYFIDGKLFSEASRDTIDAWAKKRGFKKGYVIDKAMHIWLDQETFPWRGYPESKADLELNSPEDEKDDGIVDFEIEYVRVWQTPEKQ

[5] = molecular target: T5, Ph1664 (GH16) (Paraglaciecola hydrolytica, UniProt A0A136A0V5); test: FACE (ANTS label) of hydrolysis products from κ-carrageenan and furcellaran, crude recombinant lysate; settings: 25 °C overnight, pH 8, 300 mM NaCl, 5 mM MgCl2; polysaccharide 0.05% w/v
T5 construct: gene AX660_11805; full gene without any predicted signal peptide, pET9a-USER vector (octa-His tag), E. coli BL21(DE3) crude lysate
T5 sequence (A0A136A0V5 20-322): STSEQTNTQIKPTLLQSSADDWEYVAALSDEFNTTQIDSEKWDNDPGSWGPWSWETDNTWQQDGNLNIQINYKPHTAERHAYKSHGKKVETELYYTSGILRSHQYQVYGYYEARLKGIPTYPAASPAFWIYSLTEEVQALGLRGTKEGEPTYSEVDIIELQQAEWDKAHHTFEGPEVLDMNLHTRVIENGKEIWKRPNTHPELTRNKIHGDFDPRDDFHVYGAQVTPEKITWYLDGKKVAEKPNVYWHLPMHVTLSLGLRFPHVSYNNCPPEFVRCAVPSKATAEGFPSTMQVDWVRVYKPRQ

SMILES: OC[C@H]1OC(O)[C@H](O)[C@@H](O[C@@H]2O[C@H]3CO[C@@H]([C@@H]2O)[C@@H]3O)[C@H]1O (stereo partly drawn) [neoagarobiose]
- TLC of hydrolysis products, crude recombinant lysate [1]: Ph1615 (GH117) was able to hydrolyze neoagarobiose yielding L-AHG and galactose

SMILES: OC[C@H]1O[C@@H](O[C@H]2[C@H]3OC[C@@H]2O[C@@H](O[C@H]2[C@@H](O)[C@@H](CO)OC(O)[C@@H]2O)[C@H]3O)[C@H](O)[C@@H](O[C@@H]2O[C@H]3CO[C@@H]([C@@H]2O)[C@@H]3O)[C@H]1O (stereo partly drawn) [neoagarotetraose]
- TLC of hydrolysis products from agarose, crude recombinant lysate [2]: Ph1631 degraded agarose into primarily neoagarotetraose

SMILES: O=S(=O)(O)O[C@@H]1[C@H](O[C@H]2O[C@@H]3CO[C@H]([C@H]2O)[C@H]3O[C@@H]2O[C@H](CO)[C@H](O)[C@H](O[C@H]3O[C@@H]4CO[C@@H]([C@H]4O)[C@H]3O)[C@H]2O)[C@@H](O)C(O)O[C@@H]1CO (stereo partly drawn) [β-κ, β-κ tetrasaccharide]
- FACE (AMAC label) of hydrolysis products, crude recombinant lysate [3]: when tested on a commercial β-κ tetrasaccharide, this substrate was indeed hydrolyzed into (β) and (κ)
- FACE (ANTS label) of hydrolysis products, crude recombinant lysate [4]: it was found to degrade the substrate into the corresponding β- and κ-carrabiose units

SMILES: O=S(=O)(O)O[C@@H]1[C@H](O[C@H]2O[C@@H]3CO[C@@H]([C@H]3O)[C@H]2O)[C@@H](O)C(O)O[C@@H]1CO (stereo partly drawn) [κ, neo-κ-carrabiose]
- FACE (ANTS label) of hydrolysis products from κ-carrageenan and furcellaran, cru [5]: releasing hydrolysis products corresponding to neo-κ-carrabiose (κ), neo-κ-carratetraose (κ-κ)

SMILES: O=S(=O)(O)O[C@@H]1[C@H](O[C@H]2O[C@@H]3CO[C@@H]([C@H]3O)[C@H]2O)[C@@H](O)[C@H](O[C@@H]2[C@@H]3OC[C@H]2O[C@H](O[C@H]2[C@@H](OS(=O)(=O)O)[C@@H](CO)OC(O)[C@@H]2O)[C@@H]3O)O[C@@H]1CO (stereo partly drawn) [κ-κ, neo-κ-carratetraose]
- FACE (ANTS label) of hydrolysis products from κ-carrageenan and furcellaran, cru [5]: releasing hydrolysis products corresponding to neo-κ-carrabiose (κ), neo-κ-carratetraose (κ-κ)
